Reference: patent US20250250252A1, “PIPERIDINYLBENZONITRILE DERIVATIVES AS INHIBITORS OF GLUTAMINYL-PEPTIDE CYCLOTRANSFERASE AND GLUTAMINYL-PEPTIDE CYCLOTRANSFERASE LIKE PROTEIN” (Boehringer Ingelheim International GmbH, priority 2024, published 2025)
Where two headings read alike, the source gives them in different places.

Key:
CACO-2 cells = experiment: Assay C: Permeability in CACO-2 cells; format: in vitro ADME; details: pair comparison without/with 4-fluoropiperidyl
Protocol: (§1) Caco-2 cells (1-2×10^5 cells/1 cm^2 area) are seeded on filter inserts (Costar transwell polycarbonate or PET filters, 0.4 μm pore size) and cultured (DMEM) for 10 to 25 days. Compounds are dissolved in appropriate solvent (like DMSO, 1-20 mM stock solutions). […] The transport solution (TL) is applied to the apical or basolateral donor side for measuring A-B or B-A permeability (3 filter replicates), respectively. Samples are collected at the start and end of experiment from the donor and at various time intervals for up to 2 hours also from the receiver side for concentration measurement by HPLC-MS/MS or scintillation counting. Sampled receiver volumes are replaced with fresh receiver solution.
(§2) Efflux ratio (ER)=permeability B-A/permeability A-B

[1] = Assay C: Permeability in CACO-2 cells; format: in vitro ADME; details: human; for efflux ratio: Caco-2, pH 7.2
Protocol: as §1, §2

CYP3A4 mRNA = experiment: Assay D: CYP induction screening assay in primary human hepatocytes; format: in vitro ADME; details: 48 h
Protocol: Cryopreserved plateable human hepatocytes (single donor, BioIVT) were thawed and plated in Collagen-I coated 96-well-plates at a cell density of 0.07 million cells per well.
After a 6 h attachment period, the seeding medium was replaced by serum-free William's medium E supplemented with Matrigel (0.25 mg/ml) and allowed to recover overnight. 24 h post-seeding, serum-free Williams E medium containing the test compound at a final concentration of 10 μM and a final DMSO content of 0.1% and 0.1% DMSO (solvents treated control), respectively, was added to predefined wells. Exposure solutions were renewed after 24 h.
After 48 h of treatment in total, the effect of the test compounds on CYP3A4 mRNA expression was assessed using the QuantiGene Plex Gene Expression Assay. Hepatocytes were lysed and total RNA was extracted using the QuantiGene Sample Processing Kit according to the instructions of the manufacturer.
mRNA quantification was conducted using a customized QuantiGene Plex Panel to analyse CYP3A4 and the housekeeper genes RPL32, EIF4E2 and GUSB according to the instructions of the manufacturer and measured on a Luminex™ instrument. Signal was reported as median fluorescence intensity (MFI), which is proportional to the number of target RNA molecules present in the sample.
For calculation of CYP3A4 mRNA induction, the signal for CYP3A4 was normalized against the geometric mean of the signal obtained for the housekeeper genes for hepatocytes exposed to test compounds in relation to solvent-treated samples according to the following equation:
n-fold induction=(MFI CYP3A4 (treated)/Xgeo MFI (RPL32,EIF4E2,GUSB))/(MFI CYP3A4 (solvent control)/Xgeo MFI (RPL32,EIF4E2,GUSB))

[2] = tested on: SIRPα signalling induced by Raji cells; experiment: Assay B: SIRPα signalling assay using Raji cells; format: cell-based; details: Homo sapiens, read-out: Inhibition of SIRPα signalling induced by Raji cells: IC50
Protocol: Bioassay reagent 1 of the PathHunter Bioassay detection kit (DiscoverX 93-0001) was added to each well of the plate using a multichannel pipette followed by a 15 min incubation at room temperature. Afterwards bioassay reagent 2 was added followed by 60 min incubation at room temperature (incubation in the dark).
(§3) The analysis of the data was performed using the luminescence signal generated by betagalactosidase in the PathHunter reporter cell line. The luminescence measurement was done using a Pherastar Multi-Mode Reader.

[3] = tested on: SIRPα signalling induced by A549 cells; experiment: Assay B: SIRPα signalling assay using A549 cells; format: cell-based; details: Homo sapiens, read-out: Inhibition of SIRPα signalling induced by A549 cells: IC50
Protocol: Two cell types are independently used: the Raji cell line (lymphoblast-like human cell line derived from B lymphocytes from a Burkitt's lymphoma patient in 1963) and A549 cells (adenocarcinomic human alveolar basal epithelial cells).
Test compounds were dissolved in 100% DMSO and serially diluted into a white 384-well microtiter cell culture plate (PerkinElmer #60076780 in case of Raji assay; PDL-coated plates Greiner #781945 in case of A549 assay). 5000 Raji cells (ATCC #CC86) or 5000 A549 cells (ATCC #CCL-185) in Assay Complete Cell Plating reagent 30 (DiscoverX 93-0563R30B) were added per well. The assay plate was incubated for 48 h at 37° C., 95% humidity and 5% CO2. 15000 reporter cells (Jurkat PathHunter SIRPαV1, DiscoverX #93-1135C19) were added to each well, and the plate was incubated for 5 h at 37° C., 95% humidity and 5% CO2. Bioassay reagent 1 of the PathHunter Bioassay detection kit (DiscoverX 93-0001) was added to each well of the plate using a multichannel pipette followed by a 15 min incubation at room temperature. Afterwards bioassay reagent 2 was added followed by 60 min incubation at room temperature (incubation in the dark).
as §3, with “Reader. Dose-response curves & IC50 data were calculated with 4-parameter sigmoidal dose response formula.” for “Reader.”

murine hepatocytes = experiment: Assay E: Stability in murine hepatocytes; format: in vitro ADME, mouse; details: 1 μM
Protocol: The metabolic degradation of the test compound is assayed in a murine hepatocyte suspension.
Murine hepatocytes (typically cryopreserved) are incubated in an appropriate buffer system (e.g. Dulbecco's modified eagle medium plus 3.5 μg glucagon/500 mL, 2.5 mg insulin/500 mL and 3.75 mg/500 mL hydrocortison) containing 5% species serum.
Following a (typically) 30 min preincubation in an incubator (37° C., 10% CO2) 5 μl of test compound solution (80 μM; from 2 mM in DMSO stock solution diluted 1:25 with medium) are added into 395 μl hepatocyte suspension (cell density in the range 0.25-5 Mio cells/mL, typically 1 Mio cells/mL; final concentration of test compound 1 μM, final DMSO concentration 0.05%).
The cells are incubated for six hours (incubator, orbital shaker) and samples (2 μl) are taken at 0, 0.5, 1, 2, 4 and 6 hours. Samples are transferred into acetonitrile and pelleted by centrifugation (5 min). The supernatant is transferred to a new 96-deepwell plate, evaporated under nitrogen and resuspended.
CLint is calculated as follows CL_[…]=Dose/AUC=(C0/CD)/(AUD+clast/k)×1000/60. C0: initial concentration in the incubation [μM], CD: cell density of vital cells [10e6cells/mL], AUD: area under the data [μM×h], clast: concentration of last data point [μM], k: slope of the regression line for parent decline [h−1].
The calculated in vitro hepatic intrinsic clearance can be scaled up to the intrinsic in vivo hepatic Clearance and used to predict hepatic in vivo blood clearance (CL) by the use of a liver model (well stirred model).
CL_[…]_INVIVO[ml/min/kg]=(CL_[…][μL/min/10e6cells]×hepatocellularity[10e6cells/g liver]×liver factor[g/kg bodyweight])/1000
CL[ml/min/kg]=CL_[…]_INVIVO[ml/min/kg]×hepatic blood flow[ml/min/kg]/(CL_[…]_INVIVO[ml/min/kg]+hepatic blood flow[ml/min/kg])
Hepatocellularity,mouse:120×10e6cells/g liver
Liver factor,mouse:55 g/kg bodyweight
Blood flow,mouse:90 ml/(min×kg)

[4] = pair comparison without/with 4-fluoropiperidyl, read-out: Efflux ratio (BA/AB)

Row | CACO2 Perm. (CACO-2 cells) | efflux ratio [1, 4] | Structure (SMILES) | also measured
1 | 4.8 10^−6 cm/sec |  | Cn1cnnc1C1CCN(c2c(C#N)ccnc2-c2ccc(F)nc2)CC1 [Example 133 in WO 2024/020517] | 
2 | 0.2 10^−6 cm/sec |  | Cn1cnnc1C1CCN(c2c(-c3cnc4nn(C(C)(C)C)cc4c3)ccc(C(F)(F)F)c2C#N)CC1 [Example 32 in EP 23161417.3] | 
3 | 1.7 10^−6 cm/sec |  | Cn1cnnc1C1(F)CCN(c2c(-c3cnc4nn(C(C)(C)C)cc4c3)ccc(C(F)(F)F)c2C#N)CC1 [Example 30 in EP 23161417.3] | 
4 | 0.5 10^−6 cm/sec |  | Cn1cnnc1C1CCN(c2c(C#N)cccc2-c2cnc3nn(C(C)(C)C)cc3c2)CC1 [Example 50 in EP 22216126.7] | 
5 | 15.0 10^−6 cm/sec |  | Cn1cnnc1C1(F)CCN(c2c(C#N)cccc2-c2ccnnc2)CC1 [Example 52 in EP 22216126.7] | 
6 | 4.9 10^−6 cm/sec |  | Cn1cnnc1C1(F)CCN(c2c(C#N)cccc2-c2cnc3nn(C(C)(C)C)cc3c2)CC1 [Example 62 in EP 22216126.7] | 
7 | 50.0 10^−6 cm/sec |  | Cn1cnnc1C1(F)CCN(c2c(C#N)cccc2-c2ccc(F)nc2)CC1 [Example 56 in EP 23161417.3] | 
8 | 1.8 10^−6 cm/sec |  | Cn1cnnc1C1CCN(c2c(-c3ccc(F)nc3)ccnc2C#N)CC1 [Example 132 in WO 2024/020517] | 
9 | 9.0 10^−6 cm/sec |  | Cn1cnnc1C1CCN(c2c(C#N)cc(C(F)(F)F)cc2-c2ccc(F)nc2)CC1 [Example 70 in WO 2024/020517] | 
10 | 24.0 10^−6 cm/sec |  | Cn1cnnc1C1CCN(c2c(C#N)cc(F)cc2-c2ccc(F)nc2)CC1 [Example 130 in WO 2024/020517] | 

Further lines, the compound ahead of its results:

Row | Structure (SMILES) | CACO2 Perm. (CACO-2 cells) | efflux ratio [1, 4] | also measured
11 | Cn1cnnc1C1(F)CCN(c2c(-c3ccc(F)nc3)ccnc2C#N)CC1 [Example 10 in EP 22188580.9] | 11.0 10^−6 cm/sec |  | 
12 | Cn1cnnc1C1CCN(c2c(C#N)cc(F)cc2-c2cnc3nn(C(C)(C)C)c(C(F)(F)F)c3c2)CC1 | 17.0 10^−6 cm/sec | 5.7 | 
13 | Cn1cnnc1C1(F)CCN(c2c(C#N)ccnc2-c2ccc(F)nc2)CC1 [Example 1 in EP 22188580.9] | 28.0 10^−6 cm/sec |  | 
14 | Cn1cnnc1C1CCN(c2c(C#N)cc(C(F)(F)F)nc2-c2cnc3nn(C(C)(C)C)c(C(F)(F)F)c3c2)CC1 [Example 13 in EP 23189886.7] | 3.7 10^−6 cm/sec | 5.7 | 
15 | Cn1cnnc1C1(F)CCN(c2c(C#N)cc(C(F)(F)F)cc2-c2ccc(F)nc2)CC1 [Example 4 in EP 23161417.3] | 40.5 10^−6 cm/sec |  | 
16 | Cn1cncc1C1CCN(c2c(C#N)cccc2-c2ccc(F)nc2)CC1 [QP5038, reference compound] |  |  | n-fold induction of CYP3A4 at 10 μM (CYP3A4 mRNA): 58.5 n-fold; IC50 [2]: 21 nM; efflux ratio ([1]; Assay C, permeability B-A/permeability A-B, read-out: Efflux Ratio): 0.8; Papp A→B ([1]; pH 7.2, Assay C, CACO-2 cells): 61 ×10⁻⁶ cm/s; IC50 [3]: 6 nM; Mouse Hepatocyte Stability QH (murine hepatocytes): 97%
17 | Cn1cnnc1C1CCN(c2c(C#N)cc(C(F)(F)F)nc2-c2cnc3nn(C(C)(C)C)c(Cl)c3c2)CC1 | 1.0 10^−6 cm/sec | 36.4 | 
18 | Cn1cnnc1C1(F)CCN(c2c(C#N)cc(Cl)nc2-c2ccc(F)nc2)CC1 [Example 18 in EP 23161417.3] | 66.0 10^−6 cm/sec | 1 | 
19 | Cn1cnnc1C1(F)CCN(c2c(C#N)cc(F)cc2-c2cnc3nn(C(C)(C)C)c(C(F)(F)F)c3c2)CC1 | 51.0 10^−6 cm/sec | 0.8 | 
20 | Cn1cnnc1C1CCN(c2c(C#N)cc(Cl)cc2-c2cnc3nn(C(C)(C)C)cc3c2)CC1 [Example 17 in EP 23161417.3] | 2.5 10^−6 cm/sec |  | 
21 | Cn1cnnc1C1(F)CCN(c2c(C#N)cc(C(F)(F)F)nc2-c2cnc3nn(C(C)(C)C)c(C(F)(F)F)c3c2)CC1 [Example 4 in EP 23189886.7] | 99.5 10^−6 cm/sec | 0.6 | 
22 | Cn1cnnc1C1(F)CCN(c2c(C#N)cc(F)cc2-c2ccc(F)nc2)CC1 [Example 6 in EP 23161417.3] | 44.0 10^−6 cm/sec |  | 
23 | Cn1cnnc1C1(F)CCN(c2c(C#N)cc(Cl)cc2-c2cnc3nn(C(C)(C)C)cc3c2)CC1 [Example 19 in EP 23161417.3] | 18.0 10^−6 cm/sec |  | 
24 | Cn1cnnc1C1(F)CCN(c2c(C#N)cc(C(F)(F)F)nc2-c2cnc3nn(C(C)(C)C)c(Cl)c3c2)CC1 [Example 3 in EP 23189886.7] | 47.0 10^−6 cm/sec | 1 | 
25 | Cn1cnnc1C1CCN(c2c(C#N)cc(Cl)nc2-c2ccc(F)nc2)CC1 [Example 18 in WO 2024/020517] | 23.0 10^−6 cm/sec | 3.3 | 
26 | Cn1cnnc1C1CCN(c2c(C#N)cccc2-c2ccnnc2)CC1 [Example 11 in WO 2024/020517] | 0.3 10^−6 cm/sec | 28.1 | 
